Results reported in patent publication US20250340574A1, “MODULATORS OF CYSTIC FIBROSIS TRANSMEMBRANE CONDUCTANCE REGULATOR” (Vertex Pharmaceuticals Incorporated, priority 2022, published 2025).
Read-outs that look alike come from different tables or passages of the source.

Experiments:
[1] = amide bond, 13-membered ring, DMF
[2] = target: T1, CFTR (F508del/MF-HBE cells) (Homo sapiens, UniProt P13569, DEL508-508); assay: Ussing chamber assay of CFTR-mediated short-circuit currents, Assay C (0.026 μM to 25 μM, 6 concentrations); type: cell-based; conditions: with 33 nM potentiator and 18 μM Tezacaftor, 20% human serum; for Emax: read-out: C Max activity (%)
T1 construct: human bronchial epithelial (HBE) cells derived from CF subjects heterozygous for F508del and a minimal function CFTR mutation (F508del/MF-HBE); endogenous in cells; host or cells: Primary human bronchial epithelial cells from CF subjects (F508del/MF genotype), differentiated at an air-liquid interface
Summary of the method: (§1)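 F508del/MF-HBE cells grown at air-liquid interface were incubated 18-24 h at 37 °C in 20% human serum with correctors plus 18 μM tezacaftor and a fixed partner compound (33 nM for concentration series, 44 nM at 1 μM). ISC was read at 0 mV after 20 μM forskolin, minus the post-inhibitor current.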

[3] = target: T1, CFTR (F508del/MF-HBE cells); assay: Ussing chamber assay of CFTR-mediated short-circuit currents, Assay D (single concentration of 1 μM); type: cell-based; conditions: with 44 nM potentiator and 18 μM Tezacaftor, 20% human serum; for D activity at 1 μM (%): 18-24 hours
Summary of the method: as §1

T1 sequence (P13569 with tags, fused parts or gaps DEL508-508): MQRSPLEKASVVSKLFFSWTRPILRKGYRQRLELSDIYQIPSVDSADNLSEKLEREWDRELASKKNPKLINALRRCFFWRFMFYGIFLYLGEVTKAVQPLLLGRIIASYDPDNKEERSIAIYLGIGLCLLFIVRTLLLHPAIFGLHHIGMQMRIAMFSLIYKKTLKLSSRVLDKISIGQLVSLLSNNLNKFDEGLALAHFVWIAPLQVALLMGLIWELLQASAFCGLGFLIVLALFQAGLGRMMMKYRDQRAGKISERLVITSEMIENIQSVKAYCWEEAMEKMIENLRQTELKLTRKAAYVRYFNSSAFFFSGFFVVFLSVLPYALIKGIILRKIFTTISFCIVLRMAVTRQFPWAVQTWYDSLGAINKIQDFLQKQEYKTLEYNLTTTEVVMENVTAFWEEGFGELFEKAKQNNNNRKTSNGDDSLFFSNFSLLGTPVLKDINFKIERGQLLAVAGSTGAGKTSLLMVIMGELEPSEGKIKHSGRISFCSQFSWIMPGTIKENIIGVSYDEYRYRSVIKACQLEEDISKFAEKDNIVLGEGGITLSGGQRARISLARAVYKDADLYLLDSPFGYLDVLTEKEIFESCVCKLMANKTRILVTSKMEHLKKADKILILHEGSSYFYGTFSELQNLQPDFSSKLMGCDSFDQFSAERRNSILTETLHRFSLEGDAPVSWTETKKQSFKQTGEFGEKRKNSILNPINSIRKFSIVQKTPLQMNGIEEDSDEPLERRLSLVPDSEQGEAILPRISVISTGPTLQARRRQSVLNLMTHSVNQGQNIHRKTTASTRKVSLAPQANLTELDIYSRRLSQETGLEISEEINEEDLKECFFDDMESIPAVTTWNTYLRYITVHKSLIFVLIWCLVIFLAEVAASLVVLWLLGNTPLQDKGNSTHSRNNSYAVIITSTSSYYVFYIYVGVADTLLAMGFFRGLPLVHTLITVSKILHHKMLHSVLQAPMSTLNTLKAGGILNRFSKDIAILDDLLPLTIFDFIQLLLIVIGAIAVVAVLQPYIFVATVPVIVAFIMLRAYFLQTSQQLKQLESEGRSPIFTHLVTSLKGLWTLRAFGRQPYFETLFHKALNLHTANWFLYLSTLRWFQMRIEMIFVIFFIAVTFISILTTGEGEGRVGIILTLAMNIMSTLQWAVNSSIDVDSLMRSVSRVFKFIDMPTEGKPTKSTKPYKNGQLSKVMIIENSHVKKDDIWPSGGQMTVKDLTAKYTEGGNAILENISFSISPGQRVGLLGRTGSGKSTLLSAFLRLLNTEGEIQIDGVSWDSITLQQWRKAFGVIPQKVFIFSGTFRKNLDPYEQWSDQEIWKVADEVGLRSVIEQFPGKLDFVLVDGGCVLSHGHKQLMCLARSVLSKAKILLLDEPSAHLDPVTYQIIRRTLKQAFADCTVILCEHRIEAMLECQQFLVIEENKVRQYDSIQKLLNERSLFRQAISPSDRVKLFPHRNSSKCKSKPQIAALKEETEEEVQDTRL

Row | SMILES | EC50 [2] | Emax [2] | D act. at 1 μM (%) [3] | D activity at 1 μM (%) [3] | other results
1 | Cc1cccc(C)c1-c1cc2nc(n1)NS(=O)(=O)c1cccc(c1)C(=O)N(Cc1cnc3cc(C(C)(C)C)n(C)c3n1)[C@H](CC1(C)CC1)CO2 [Compound I-187, (11R)-12-[(6-tert-Butyl-5-methyl-pyrrolo[2,3-b]pyrazin-3-yl)methyl]-6-(2,6-dimethylphenyl)-11-[(1-methylcyclopropyl)methyl]-2,2-dioxo-9-oxa-2λ^6-thia-3,5,12,19-tetrazatricyclo[12.3.1.14,8]nonadeca-1(18),4(19),5,7,14,16-hexaen-13-one] | < 1000 nM |  |  | +++ (+++ is >60%) | ring closure, yield after HPLC ([1]; from Cc1cccc(C)c1-c1cc(OC[C@@H](CC2(C)CC2)NCc2cnc3cc(C(C)(C)C)n(C)c3n2)nc(NS(=O)(=O)c2cccc(C(=O)O)c2)n1, CDMT/NMM, 22.5 mM, 4.0 h): 41%; Emax ([2]; 18-24 hours): > 60%
2 | Cc1cccc(C)c1-c1cc2nc(n1)NS(=O)(=O)c1cccc(c1)C(=O)N(Cc1cnc3oc(C(C)(C)C)cc3n1)[C@H](C[C@H]1CCCCO1)CO2 [Compound I-220, (11R)-12-[(6-tert-Butylfuro[2,3-b]pyrazin-2-yl)methyl]-6-(2,6-dimethylphenyl)-2,2-dioxo-11-[[(2R)-tetrahydropyran-2-yl]methyl]-9-oxa-2λ^6-thia-3,5,12,19-tetrazatricyclo[12.3.1.14,8]nonadeca-1(18),4(19),5,7,14,16-hexaen-13-one] |  |  |  | +++ (+++ is >60%) | ring closure, yield after HPLC ([1]; from Cc1cccc(C)c1-c1cc(OC[C@@H](C[C@H]2CCCCO2)NCc2cnc3oc(C(C)(C)C)cc3n2)nc(NS(=O)(=O)c2cccc(C(=O)O)c2)n1, CDMT/DIEA, 11.6 mM, 48.0 h): 70%
3 | Cc1cccc(C)c1-c1cc2nc(n1)NS(=O)(=O)c1cccc(c1)C(=O)N(Cc1ccc3oc(C4(C)CC4)cc3n1)[C@H](CC13CC(C1)C3)CO2 [Compound I-225, (11R)-11-(1-Bicyclo[1.1.1]pentanylmethyl)-6-(2,6-dimethylphenyl)-12-[[2-(1-methylcyclopropyl)furo[3,2-b]pyridin-5-yl]methyl]-2,2-dioxo-9-oxa-2λ^6-thia-3,5,12,19-tetrazatricyclo[12.3.1.14,8]nonadeca-1(18),4(19),5,7,14,16-hexaen-13-one] |  |  |  | +++ (+++ is >60%) | ring closure, yield after HPLC ([1]; from Cc1cccc(C)c1-c1cc(OC[C@@H](CC23CC(C2)C3)NCc2ccc3oc(C4(C)CC4)cc3n2)nc(NS(=O)(=O)c2cccc(C(=O)O)c2)n1, CDMT/NMM): 61%
4 | Cc1cccc(C)c1-c1cc2nc(n1)NS(=O)(=O)c1cccc(c1)C(=O)N(Cc1cnc3cc(C4(C)CC4)n(C)c3n1)[C@H](CC13CC(C1)C3)CO2 [Compound I-227, (11R)-11-(1-Bicyclo[1.1.1]pentanylmethyl)-6-(2,6-dimethylphenyl)-12-[[5-methyl-6-(1-methylcyclopropyl)pyrrolo[2,3-b]pyrazin-3-yl]methyl]-2,2-dioxo-9-oxa-2λ^6-thia-3,5,12,19-tetrazatricyclo[12.3.1.14,8]nonadeca-1(18),4(19),5,7,14,16-hexaen-13-one] | < 1000 nM |  |  | +++ (+++ is >60%) | ring closure, yield after HPLC ([1]; from Cc1cccc(C)c1-c1cc(OC[C@@H](CC23CC(C2)C3)NCc2cnc3cc(C4(C)CC4)n(C)c3n2)nc(NS(=O)(=O)c2cccc(C(=O)O)c2)n1, CDMT/NMM, 25.0 °C): 66%; Emax ([2]; 18-24 hours): > 60%
5 | Cc1cccc(C)c1-c1cc2nc(n1)NS(=O)(=O)c1cccc(c1)C(=O)N(Cc1nc3cc(C4(C)CC4)oc3cc1F)[C@H](CC1(C)CC1)CO2 [Compound I-234, (11R)-6-(2,6-Dimethylphenyl)-12-[[6-fluoro-2-(1-methylcyclopropyl)furo[3,2-b]pyridin-5-yl]methyl]-11-[(1-methylcyclopropyl)methyl]-2,2-dioxo-9-oxa-2λ^6-thia-3,5,12,19-tetrazatricyclo[12.3.1.14,8]nonadeca-1(18),4(19),5,7,14,16-hexaen-13-one] |  |  |  | +++ (+++ is >60%) | ring closure, yield after HPLC ([1]; from Cc1cccc(C)c1-c1cc(OC[C@@H](CC2(C)CC2)NCc2nc3cc(C4(C)CC4)oc3cc2F)nc(NS(=O)(=O)c2cccc(C(=O)O)c2)n1, CDMT/NMM, 25.0 °C): 57%

Now from value to compound, other results behind:

Row | EC50 [2] | Emax [2] | D act. at 1 μM (%) [3] | D activity at 1 μM (%) [3] | SMILES | other results
6 | < 1000 nM | > 60% | +++ (+++ is >60%) |  | Cc1cccc(COC(C)C)c1-c1nc2nc(c1C)OC[C@@H](CC(C)(C)C)N(Cc1cnc3oc(C(C)(C)C)cc3n1)C(=O)c1cccc(c1)S(=O)(=O)N2 (single isomer, unassigned) [IV-40] | ring closure, yield after HPLC ([1]; from Cc1cccc(COC(C)C)c1-c1nc(NS(=O)(=O)c2cccc(C(=O)O)c2)nc(OC[C@@H](CC(C)(C)C)NCc2cnc3oc(C(C)(C)C)cc3n2)c1C, CDMT/NMM, 15.1 mM, 25.0 °C, 60.0 h): 23%
7 |  |  |  | +++ (+++ is >60%) | Cc1cccc(C)c1-c1cc2nc(n1)NS(=O)(=O)c1cccc(c1)C(=O)N(Cc1cnc3c(n1)CN(C(C)C)C3=O)[C@H](CC13CC(C1)C3)CO2 [III-16, (11R)-11-(1-bicyclo[1.1.1]pentanylmethyl)-6-(2,6-dimethylphenyl)-12-[(6-isopropyl-7-oxo-5H-pyrrolo[3,4-b]pyrazin-3-yl)methyl]-2,2-dioxo-9-oxa-2λ^6-thia-3,5,12,19-tetrazatricyclo[12.3.1.14,8]nonadeca-1(18),4(19),5,7,14,16-hexaen-13-one] | ring closure, yield after HPLC ([1]; from Cc1cccc(C)c1-c1cc(OC[C@@H](CC23CC(C2)C3)NCc2cnc3c(n2)CN(C(C)C)C3=O)nc(NS(=O)(=O)c2cccc(C(=O)O)c2)n1, CDMT/NMM, 13.0 mM, 16.5 h): 39%
8 |  |  |  | +++ (+++ is >60%) | Cc1cccc(C)c1-c1cc2nc(n1)NS(=O)(=O)c1cccc(c1)C(=O)N(Cc1cc3ccn(C(C)C)c3cn1)[C@H](CC1(C)CC1)CO2 [III-25, (11R)-6-(2,6-Dimethylphenyl)-12-[(I-isopropylpyrrolo[2,3-c]pyridin-5-yl)methyl]-11-[(I-methylcyclopropyl)methyl]-2,2-dioxo-9-oxa-2λ^6-thia-3,5,12,19-tetrazatricyclo[12.3.1.14,8]nonadeca-1(18),4(19),5,7,14,16-hexaen-13-one] | ring closure, yield after HPLC ([1]; from Cc1cccc(C)c1-c1cc(OC[C@@H](CC2(C)CC2)NCc2cc3ccn(C(C)C)c3cn2)nc(NS(=O)(=O)c2cccc(C(=O)O)c2)n1, CDMT/NMM, 9.73 mM, 16.33 h): 50%
9 | < 1000 nM | > 60% | +++ (+++ is >60%) |  | CCc1c2nc(nc1-c1c(C)cccc1C)NS(=O)(=O)c1cccc(c1)C(=O)N(Cc1cnc3cc(C(C)(C)C)n(C)c3n1)[C@H](COC(C)C)CO2 [IV-4, (11R)-12-[(6-tert-butyl-5-methyl-pyrrolo[2,3-b]pyrazin-3-yl)methyl]-6-(2,6-dimethylphenyl)-7-ethyl-11-(isopropoxymethyl)-2,2-dioxo-9-oxa-2λ^6-thia-3,5,12,19-tetrazatricyclo[12.3.1.14,8]nonadeca-1(17),4(19),5,7,14(18),15-hexaen-13-one] | ring closure, yield after HPLC ([1]; from CCc1c(OC[C@@H](COC(C)C)NCc2cnc3cc(C(C)(C)C)n(C)c3n2)nc(NS(=O)(=O)c2cccc(C(=O)O)c2)nc1-c1c(C)cccc1C, CDMT/NMM, 10.0 mM, 25.0 °C, 3.5 h): 20%
10 | < 1000 nM | > 60% | +++ (+++ is >60%) |  | Cc1cccc(C)c1-c1cc2nc(n1)NS(=O)(=O)c1cccc(c1)C(=O)N(Cc1ncc3cc(C(C)(C)C)n(C)c3n1)[C@H](CC13CC(C1)C3)CO2 [IV-35, (11R)-11-(1-bicyclo[1.1.1]pentanylmethyl)-12-[(6-tert-butyl-7-methyl-pyrrolo[2,3-d]pyrimidin-2-yl)methyl]-6-(2,6-dimethylphenyl)-2,2-dioxo-9-oxa-2λ^6-thia-3,5,12,19-tetrazatricyclo[12.3.1.14,8]nonadeca-1(18),4(19),5,7,14,16-hexaen-13-one] | ring closure, yield after HPLC ([1]; from Cc1cccc(C)c1-c1cc(OC[C@@H](CC23CC(C2)C3)NCc2ncc3cc(C(C)(C)C)n(C)c3n2)nc(NS(=O)(=O)c2cccc(C(=O)O)c2)n1, CDMT/NMM, 9.95 mM, 25.0 °C, 16.5 h): 27%
11 | 1000 to 3000 nM | > 60% | +++ (+++ is >60%) |  | CCC(CC)[C@@H]1COc2cc(-c3c(C)cccc3C)nc(n2)NS(=O)(=O)c2cccc(c2)C(=O)N1Cc1cnc2oc(C(C)(C)C)cc2n1 [IV-48, (11R)-12-[(6-tert-butylfuro[2,3-b]pyrazin-2-yl)methyl]-6-(2,6-dimethylphenyl)-11-(1-ethylpropyl)-2,2-dioxo-9-oxa-2λ^6-thia-3,5,12,19-tetrazatricyclo[12.3.1.14,8]nonadeca-1(18),4,6,8(19),14,16-hexaen-13-one] | ring closure, yield after HPLC ([1]; from CCC(CC)[C@H](COc1cc(-c2c(C)cccc2C)nc(NS(=O)(=O)c2cccc(C(=O)O)c2)n1)NCc1cnc2oc(C(C)(C)C)cc2n1, CDMT/NMM, 11.1 mM, 25.0 °C, 18.0 h): 52%
